Laboratory results reported in PubChem BioAssay AID504510 (The Scripps Research Institute Molecular Screening Center, 2011).
Active and inactive are the calls of the source. How the calls were made is not given here.

Test: cytotoxicity in cultured cells, late-stage follow-up, cytotoxicity control for LYPLA1 inhibitor project, cell-based, absorbance, serum-free and serum media, set 2 (AID 504510)
Conditions: cell viability, serum-free vs serum media

For `CCC1CCCCN1C(=O)n1ncc(C(O)(c2ccccc2)c2ccccc2)n1` (centres undefined), the CC50 (serum-free media) was > 50 µM (inactive) and the CC50 (with FCS) was > 50 µM (inactive).
For `COCC1CCCCN1C(=O)n1ncc(C(O)(c2ccccc2)c2ccccc2)n1` (centres undefined), the CC50 (serum-free media) was > 50 µM (inactive) and the CC50 (with FCS) was > 50 µM (inactive).
